Measurements reported in US12459922B2 (Gilead Sciences, Inc., priority 2022, dated 2025).

system: endogenous cellular STAT1 (phosphorylated at Tyr701) in NCI-H1373 cells; test: Phospho-STAT1 (Tyr701) LANCE Ultra TR-FRET Detection Assay; type: cell-based; conditions: Homo sapiens, NCI-H1373, 48 h, phospho-STAT1 (Tyr701) induction, read-out: NH1373 pSTAT1 EC50

Row | Structure (SMILES) | EC50
1 | O=c1[nH]ncc(N[C@H]2CCN[C@@H]2CCn2ccc3cc(-c4ncc(C(F)(F)F)cn4)c(F)cc3c2=O)c1C(F)(F)F [Example 440, 7-fluoro-2-(2-((2R,3S)-3-((6-oxo-5-(trifluoromethyl)-1,6-dihydropyridazin-4-yl)amino)pyrrolidin-2-yl)ethyl)-6-(5-(trifluoromethyl)pyrimidin-2-yl)isoquinolin-1(2H)-one] | 1750 nM
2 | C[C@H](Nc1cn[nH]c(=O)c1C(F)(F)F)[C@@H](O)CCn1ccc2cc(-c3ncc(C(F)(F)F)cn3)c(F)cc2c1=O [Example 442, 7-fluoro-2-((3S,4S)-3-hydroxy-4-((6-oxo-5-(trifluoromethyl)-1,6-dihydropyridazin-4-yl)amino)pentyl)-6-(5-(trifluoromethyl)pyrimidin-2-yl)isoquinolin-1(2H)-one] | 1850 nM
3 | O=c1[nH]ncc(N[C@H]2CC[C@@H](Cn3ccc4cc(-c5ncc(C(F)(F)F)cn5)c(F)cc4c3=O)C2)c1C(F)(F)F [Example 443, 7-fluoro-2-(((1R,3S)-3-((6-oxo-5-(trifluoromethyl)-1,6-dihydropyridazin-4-yl)amino)cyclopentyl)methyl)-6-(5-(trifluoromethyl)pyrimidin-2-yl)isoquinolin-1(2H)-one] | 273 nM
4 | Nc1nc(-c2cc3ccn(C[C@@H]4CC[C@H](Nc5cn[nH]c(=O)c5C(F)(F)F)C4)c(=O)c3cc2F)ncc1C(F)(F)F [Example 444, 6-(4-amino-5-(trifluoromethyl)pyrimidin-2-yl)-7-fluoro-2-(((1R,3S)-3-((6-oxo-5-(trifluoromethyl)-1,6-dihydropyridazin-4-yl)amino)cyclopentyl)methyl)isoquinolin-1(2H)-one] | 25.1 nM
5 | C[C@H](Nc1cn[nH]c(=O)c1C(F)(F)F)[C@H](O)CCn1ccc2cc(-c3ncc(C(F)(F)F)cn3)c(F)cc2c1=O [Example 445, 7-fluoro-2-((3R,4S)-3-hydroxy-4-((6-oxo-5-(trifluoromethyl)-1,6-dihydropyridazin-4-yl)amino)pentyl)-6-(5-(trifluoromethyl)pyrimidin-2-yl)isoquinolin-1(2H)-one] | 18.5 nM
6 | O=c1[nH]ncc(N[C@@H]2CC[C@H](Cn3ccc4cc(-c5ncc(C(F)(F)F)cn5)c(F)cc4c3=O)C2)c1C(F)(F)F [Example 446, 7-fluoro-2-(((1S,3R)-3-((6-oxo-5-(trifluoromethyl)-1,6-dihydropyridazin-4-yl)amino)cyclopentyl)methyl)-6-(5-(trifluoromethyl)pyrimidin-2-yl)isoquinolin-1(2H)-one] | 270 nM
7 | Nc1nc(-c2cc3ccn(C[C@H]4CC[C@@H](Nc5cn[nH]c(=O)c5C(F)(F)F)C4)c(=O)c3cc2F)ncc1C(F)(F)F [Example 447, 6-(4-amino-5-(trifluoromethyl)pyrimidin-2-yl)-7-fluoro-2-(((1S,3R)-3-((6-oxo-5-(trifluoromethyl)-1,6-dihydropyridazin-4-yl)amino)cvclopentyl)methyl)isoquinolin-1(2H)-one] | 25.6 nM
8 | O=c1[nH]ncc(N[C@H]2CCC[C@@H]2CCn2cnc3cc(-c4ncc(Cl)cn4)c(F)cc3c2=O)c1C(F)(F)F [Example 448, 7-(5-chloropyrimidin-2-yl)-6-fluoro-3-(2-((1R,2S)-2-((6-oxo-5-(trifluoromethyl)-1,6-dihydropyridazin-4-yl)amino)cyclopentyl)ethyl)quinazolin-4(3H)-one] | 6.82 nM
9 | Nc1nc(-c2cc3ncn(CC[C@H]4CCC[C@@H]4Nc4cn[nH]c(=O)c4C(F)(F)F)c(=O)c3cc2F)ncc1Cl [Example 449, 7-(4-amino-5-chloropyrimidin-2-yl)-6-fluoro-3-(2-((1R,2S)-2-((6-oxo-5-(trifluoromethyl)-1,6-dihydropyridazin-4-yl)amino)cyclopentyl)ethyl)quinazolin-4(3H)-one] | 6.42 nM
10 | O=c1[nH]ncc(N[C@H]2CCCC[C@@H]2CCn2ccc3cc(-c4ncc(C(F)(F)F)cn4)c(F)cc3c2=O)c1C(F)(F)F [Example 450, 7-fluoro-2-[2-[(1R,2S)-2-[[6-oxo-5-(trifluoromethyl)-1H-pyridazin-4-yl]amino]cyclohexyl]ethyl]-6-[5-(trifluoromethyl)pyrimidin-2-yl]isoquinolin-1-one] | 11.4 nM
11 | Nc1nc(-c2cc3ccn(CC[C@H]4CCCC[C@@H]4Nc4cn[nH]c(=O)c4C(F)(F)F)c(=O)c3cc2F)ncc1C(F)(F)F [Example 451, 6-[4-amino-5-(trifluoromethyl)pyrimidin-2-yl]-7-fluoro-2-[2-[(1R,2S)-2-[[6-oxo-5-(trifluoromethyl)-1H-pyridazin-4-yl]amino]cyclohexyl]ethyl]isoquinolin-1-one] | 4.76 nM
12 | O=c1[nH]ncc(N[C@H]2CC[C@@H]2CCn2cnc3cc(-c4ncc(C(F)(F)F)cn4)c(F)cc3c2=O)c1C(F)(F)F [Example 452, 6-fluoro-3-[2-[(1R,2S)-2-[[6-oxo-5-(trifluoromethyl)-1H-pyridazin-4-yl]amino]cyclobutyl]ethyl]-7-[5-(trifluoromethyl)pyrimidin-2-yl]quinazolin-4-one] | 35.9 nM
13 | O=c1[nH]ncc(N[C@H](CCCn2ccc3cc(-c4ncc(C(F)(F)F)cn4)c(F)cc3c2=O)CC(F)(F)F)c1C(F)(F)F [Example 453, (R)-7-fluoro-2-(6,6,6-trifluoro-4-((6-oxo-5-(trifluoromethyl)-1,6-dihydropyridazin-4-yl)amino)hexyl)-6-(5-(trifluoromethyl)pyrimidin-2-yl)isoquinolin-1(2H)-one] | 215 nM
14 | O=c1[nH]ncc(O[C@H]2CCC[C@@H](Cn3ccc4cc(-c5ncc(C(F)(F)F)cn5)c(F)cc4c3=O)C2)c1C(F)(F)F [Example 454, 7-fluoro-2-(((1R,3S)-3-((6-oxo-5-(trifluoromethyl)-1,6-dihydropyridazin-4-yl)oxy)cyclohexyl)methyl)-6-(5-(trifluoromethyl)pyrimidin-2-yl)isoquinolin-1(2H)-one] | 7.48 nM
15 | Nc1nc(-c2cc3ccn(C[C@@H]4CCC[C@H](Oc5cn[nH]c(=O)c5C(F)(F)F)C4)c(=O)c3cc2F)ncc1C(F)(F)F [Example 455, 6-(4-amino-5-(trifluoromethyl)pyrimidin-2-yl)-7-fluoro-2-(((1R,3S)-3-((6-oxo-5-(trifluoromethyl)-1,6-dihydropyridazin-4-yl)oxy)cyclohexyl)methyl)isoquinolin-1(2H)-one] | 38.2 nM
16 | O=c1[nH]ncc(O[C@H]2CCC[C@@H](Cn3ccc4cc(-c5ncc(C(F)F)cn5)c(F)cc4c3=O)C2)c1C(F)(F)F [Example 456, 6-(5-(difluoromethyl)pyrimidin-2-yl)-7-fluoro-2-(((1R,3S)-3-((6-oxo-5-(trifluoromethyl)-1,6-dihydropyridazin-4-yl)oxy)cyclohexyl)methyl)isoquinolin-1(2H)-one] | 48 nM
17 | O=c1[nH]ncc(O[C@H]2CCC[C@@H](Cn3cnc4cc(-c5ncc(C(F)F)cn5)c(F)cc4c3=O)C2)c1C(F)(F)F [Example 457, 7-(5-(difluoromethyl)pyrimidin-2-yl)-6-fluoro-3-(((1R,3S)-3-((6-oxo-5-(trifluoromethyl)-1,6-dihydropyridazin-4-yl)oxy)cyclohexyl)methyl)quinazolin-4(3H)-one] | 10.6 nM
18 | O=c1[nH]ncc(N[C@H]2CCC[C@@H](Cn3cnc4cc(-c5ncc(C(F)(F)F)c(Br)n5)c(F)cc4c3=O)C2)c1C(F)(F)F [Example 458, 7-(4-bromo-5-(trifluoromethyl)pyrimidin-2-yl)-6-fluoro-3-(((1R,3S)-3-((6-oxo-5-(trifluoromethyl)-1,6-dihydropyridazin-4-yl)amino)cyclohexyl)methyl)quinazolin-4(3H)-one] | 2940 nM
19 | O=c1[nH]ncc(N[C@H]2CCC[C@@H](Cn3cc(Br)c4cc(-c5ncc(C(F)(F)F)cn5)c(F)cc4c3=O)C2)c1C(F)(F)F [Example 459, 4-bromo-7-fluoro-2-(((1R,3S)-3-((6-oxo-5-(trifluoromethyl)-1,6-dihydropyridazin-4-yl)amino)cyclohexyl)methyl)-6-(5-(trifluoromethyl)pyrimidin-2-yl)isoquinolin-1(2H)-one] | 12.2 nM
20 | Nc1nc(-c2cc3ncn(CCC[C@@H](Nc4cn[nH]c(=O)c4C(F)(F)F)C4CC4)c(=O)c3cc2F)cnc1C(F)(F)F [Example 460, (R)-7-(6-amino-5-(trifluoromethyl)pyrazin-2-yl)-3-(4-cyclopropyl-4-((6-oxo-5-(trifluoromethyl)-1,6-dihydropyridazin-4-yl)amino)butyl)-6-fluoroquinazolin-4(3H)-one] | 69.9 nM
21 | Nc1nc(-c2cc3ncn(CCC[C@@H](Nc4cn[nH]c(=O)c4C(F)(F)F)C4CC4)c(=O)c3cc2F)ncc1Cl [Example 461, (R)-7-(4-amino-5-chloropyrimidin-2-yl)-3-(4-cyclopropyl-4-((6-oxo-5-(trifluoromethyl)-1,6-dihydropyridazin-4-yl)amino)butyl)-6-fluoroquinazolin-4(3H)-one] | 15.1 nM
22 | Nc1nc(-c2cc3ncn(CCC[C@@H](Nc4cn[nH]c(=O)c4C(F)(F)F)C4CC4)c(=O)c3cc2F)ncc1C(F)F [Example 462, (R)-7-(4-amino-5-(difluoromethyl)pyrimidin-2-yl)-3-(4-cyclopropyl-4-((6-oxo-5-(trifluoromethyl)-1,6-dihydropyridazin-4-yl)amino)butyl)-6-fluoroquinazolin-4(3H)-one] | 27.6 nM
23 | O=c1[nH]ncc(N[C@H]2CCC[C@@H]2CCn2cnc3cc(-c4ncc(C(F)(F)F)cn4)c(F)cc3c2=O)c1C(F)(F)F [Example 463, 6-fluoro-3-(2-((1R,2S)-2-((6-oxo-5-(trifluoromethyl)-1,6-dihydropyridazin-4-yl)amino)cyclopentyl)ethyl)-7-(5-(trifluoromethyl)pyrimidin-2-yl)quinazolin-4(3H)-one] | 9.47 nM
24 | Nc1nc(-c2cc3ncn(CC[C@H]4CCC[C@@H]4Nc4cn[nH]c(=O)c4C(F)(F)F)c(=O)c3cc2F)ncc1C(F)(F)F [Example 464, 7-(4-amino-5-(trifluoromethyl)pyrimidin-2-yl)-6-fluoro-3-(2-((1R,2S)-2-((6-oxo-5-(trifluoromethyl)-1,6-dihydropyridazin-4-yl)amino)cvclopentyl)ethyl)quinazolin-4(3H)-one] | 3.62 nM
